The target in data set [1] is Receptor-type tyrosine-protein kinase FLT3 (Homo sapiens, UniProt P36888, D835Y).
Description: Inhibition of FLT3 D835Y mutant (unknown origin) using peptide substrate TK-S and ATP as substrate incubated for 1 hr by HTRF assay
For data set [2], the target named is Voltage-gated inwardly rectifying potassium channel KCNH2 (Homo sapiens, UniProt Q12809). Briefly: Inhibition of hERG expressed in HEK293 cells assessed as fast channel deactivation at 100 uM by whole cell patch clamp analysis. The format is toxicity, cell-based. The note with it: hek293, 100 µM. (Block of hERG is tested as a sign of cardiac risk.)
A short description of data set [3]: Selectivity ratio of IC50 for AMPK alpha2beta1gamma1 (unknown origin) to IC50 for FLT3-ITD mutant (unknown origin).
Data set [4] is described as follows: AUC (infinity) in ICR mouse at 10 mg/kg, po. The note with it: in vivo. Also noted: dose 10 mg/kg, route po. The data set is classed as ADME, organism-based.
Data set [5] addresses T1, Serine/threonine-protein kinase Chk1 (Homo sapiens) (UniProt O14757).
T1 sequence (whole entry): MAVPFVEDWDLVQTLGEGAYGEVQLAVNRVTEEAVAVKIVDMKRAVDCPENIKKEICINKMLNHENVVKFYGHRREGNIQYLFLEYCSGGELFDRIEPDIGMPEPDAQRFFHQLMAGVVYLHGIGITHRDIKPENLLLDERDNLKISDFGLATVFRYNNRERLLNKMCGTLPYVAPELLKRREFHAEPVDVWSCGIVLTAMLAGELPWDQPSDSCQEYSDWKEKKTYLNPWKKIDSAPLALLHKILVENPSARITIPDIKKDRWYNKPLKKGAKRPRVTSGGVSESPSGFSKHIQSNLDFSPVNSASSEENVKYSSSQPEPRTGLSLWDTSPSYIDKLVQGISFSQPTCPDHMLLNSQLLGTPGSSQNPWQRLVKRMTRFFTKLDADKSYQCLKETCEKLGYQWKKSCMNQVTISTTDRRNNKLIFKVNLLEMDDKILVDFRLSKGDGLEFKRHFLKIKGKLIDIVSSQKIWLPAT
Nature of the data set: Inhibition of CHK1 in human MV4-11 cells assessed as upregulation of p21 protein expression measured after 90 mins by western blot analysis. The note with it: dose 50-200 nM. The format is cell-based. For orientation: In western blotting, separated proteins are transferred to a membrane and probed.

Data set [6] relates to MV4-11. Nature of the data set: cells. The note with it: Homo sapiens, MV4-11, 72 h.
Description: Antiproliferative activity against human MV4-11 cells assessed as reduction in cell viability incubated for 72 hrs by CellTiter 96 Aqueous One Solution Cell Proliferation Assay
The nature of data set [7]: Selectivity ratio of IC50 for PIM1 (unknown origin) to IC50 for FLT3-ITD mutant (unknown origin).
Data set [8] deals with MOLM-13. Briefly: Antitumor activity against human MOLM-13 cells xenografted in NSG mouse assessed as animal's survival rate at 30 mg/kg, po qd for 26 days (reference value: 17 days). The format is functional. Particulars: time 26 day; call rule not given here.
The target of data set [9] is Ribosomal protein S6 kinase beta-1 (Homo sapiens, UniProt P23443). Nature of the data set: Inhibition of P70S6K (unknown origin) by HTRF assay.
For data set [10], the system named is Z-138. Nature of the data set: Antiproliferative activity against human Z138 cells assessed as reduction in cell viability incubated for 72 hrs by CellTiter 96 Aqueous One Solution Cell Proliferation Assay. The note with it: Z-138, 72 h. The data set is classed as functional, cell-based.
Data set [11] addresses Receptor-type tyrosine-protein kinase FLT3 (Homo sapiens, UniProt P36888, ITD). Briefly: Inhibition of FLT3 ITD mutant (unknown origin) by HTRF assay.
A short description of data set [12]: Acute toxicity in ICR mouse assessed as morphological changes in liver at 300 mg/kg, ig and measured for 7 days by Hematoxylin-Eosin staining based analysis. The format is organism-based. The note with it: in vivo, po, 168 h, time 7 day.

pIC50: −log10 of the molar value.

The source of these data is ChEMBL document CHEMBL5321272 (J Med Chem, 2023).

Sequence of Voltage-gated inwardly rectifying potassium channel KCNH2 (Q12809 whole entry): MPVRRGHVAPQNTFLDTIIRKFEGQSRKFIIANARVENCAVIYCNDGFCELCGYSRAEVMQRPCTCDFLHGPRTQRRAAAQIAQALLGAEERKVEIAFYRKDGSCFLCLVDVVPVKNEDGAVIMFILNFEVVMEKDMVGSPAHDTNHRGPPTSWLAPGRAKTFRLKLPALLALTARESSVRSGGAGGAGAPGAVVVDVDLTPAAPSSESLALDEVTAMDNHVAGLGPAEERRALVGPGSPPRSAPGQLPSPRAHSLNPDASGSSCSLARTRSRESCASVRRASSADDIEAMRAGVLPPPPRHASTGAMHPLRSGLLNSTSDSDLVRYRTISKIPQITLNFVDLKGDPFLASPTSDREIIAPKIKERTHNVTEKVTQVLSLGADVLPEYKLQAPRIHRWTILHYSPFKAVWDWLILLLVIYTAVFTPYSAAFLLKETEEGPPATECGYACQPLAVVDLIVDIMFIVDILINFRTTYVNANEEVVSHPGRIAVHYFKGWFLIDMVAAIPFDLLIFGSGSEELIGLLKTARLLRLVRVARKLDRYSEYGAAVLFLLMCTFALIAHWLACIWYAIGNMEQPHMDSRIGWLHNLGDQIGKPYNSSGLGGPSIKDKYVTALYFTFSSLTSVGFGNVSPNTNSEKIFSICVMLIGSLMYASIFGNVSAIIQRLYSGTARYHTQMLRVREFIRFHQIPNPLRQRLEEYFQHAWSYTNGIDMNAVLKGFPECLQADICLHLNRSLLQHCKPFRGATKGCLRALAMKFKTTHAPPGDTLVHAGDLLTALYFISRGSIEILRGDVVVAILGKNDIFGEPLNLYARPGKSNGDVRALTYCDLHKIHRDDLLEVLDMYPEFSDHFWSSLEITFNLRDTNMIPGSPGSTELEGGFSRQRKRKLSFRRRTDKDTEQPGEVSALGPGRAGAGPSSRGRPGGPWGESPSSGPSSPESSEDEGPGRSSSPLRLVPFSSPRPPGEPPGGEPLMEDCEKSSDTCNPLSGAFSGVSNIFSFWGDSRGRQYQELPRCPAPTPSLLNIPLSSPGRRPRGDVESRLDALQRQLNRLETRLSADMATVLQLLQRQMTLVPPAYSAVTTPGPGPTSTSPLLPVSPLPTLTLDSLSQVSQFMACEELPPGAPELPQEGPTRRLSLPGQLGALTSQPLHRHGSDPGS
Sequence of Ribosomal protein S6 kinase beta-1 (P23443 whole entry): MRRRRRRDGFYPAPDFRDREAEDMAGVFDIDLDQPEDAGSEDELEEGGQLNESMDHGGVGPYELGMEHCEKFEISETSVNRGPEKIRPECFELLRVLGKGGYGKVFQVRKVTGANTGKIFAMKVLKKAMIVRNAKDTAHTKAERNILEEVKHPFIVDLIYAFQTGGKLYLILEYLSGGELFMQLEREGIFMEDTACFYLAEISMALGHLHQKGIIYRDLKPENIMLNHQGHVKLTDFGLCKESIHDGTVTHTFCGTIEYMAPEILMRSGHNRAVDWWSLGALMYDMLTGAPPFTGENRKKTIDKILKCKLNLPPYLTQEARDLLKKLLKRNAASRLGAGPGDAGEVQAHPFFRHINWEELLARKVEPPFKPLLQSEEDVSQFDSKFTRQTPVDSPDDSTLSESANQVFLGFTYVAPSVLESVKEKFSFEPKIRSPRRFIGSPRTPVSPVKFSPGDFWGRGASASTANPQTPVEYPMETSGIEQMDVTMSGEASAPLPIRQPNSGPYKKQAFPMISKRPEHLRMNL

The term pIC50 denotes the negative decadic logarithm of the IC50, by convention in mol/L. The AUC(0-inf) is total exposure, with the tail of the curve extrapolated. Higher therefore signals more exposure. Turning to `CC(C)(O)CC(=O)N1CCc2cc(Nc3ncc(C(F)(F)F)c(N[C@H]4CC[C@@H](N)CC4)n3)ccc2C1`, the pIC50 in data set [1] is 8.97; in data set [6], 9.68; in data set [9] it was 7.04; in [10], 6.94; in data set [11] it was over 8.00. For the same compound, the “inhibition (INH)” value in data set [2] is given as “Active”. Further, the Ratio IC50 in [3] and in [7] was over 100 throughout. Besides, in data set [4], the AUC(0-inf) worked out at 1660 ng·h/mL. For the same compound, the inhibition entry in data set [5] is “Dose-Dependent Effect”. Moreover, the Survival in [8] amounted to 22 days. Further, in [12], the Activity result is “Non-Toxic”.
